Measurements as given in the NIST ThermoML archive (doi:10.1016/j.jct.2008.10.010).

Assay: molar heat capacity at constant pressure; xn = mol fraction of the nth substance listed
Settings: 101.3 kPa, Liquid, Small sample (50 mg) DSC

CCC(C)(C)O [2-methylbutan-2-ol] + CCCCCCC
Settings | molar heat capacity at constant pressure [J/K/mol]
284.14 K, x1 = 0.0061 | 220.41
284.14 K, x1 = 0.0249 | 226.02
284.14 K, x1 = 0.0494 | 229.4
284.14 K, x1 = 0.1999 | 234.97
284.14 K, x1 = 0.4051 | 235.79
284.14 K, x1 = 0.5981 | 234.72
284.14 K, x1 = 0.7015 | 233.37
284.14 K, x1 = 0.9139 | 231.9
284.14 K, x1 = 0.9609 | 232.4
284.16 K, x1 = 0.1 | 232.58
284.16 K, x1 = 0.1547 | 234.25
284.16 K, x1 = 0.2993 | 235.98
284.16 K, x1 = 0.4986 | 235.43
284.18 K, x1 = 0.8023 | 232.34
285.15 K, x1 = 0.0061 | 220.65
285.15 K, x1 = 0.0249 | 226.27
285.15 K, x1 = 0.0494 | 229.86
285.15 K, x1 = 0.1 | 233.16
285.15 K, x1 = 0.1547 | 234.99
285.15 K, x1 = 0.1999 | 235.77
285.15 K, x1 = 0.2993 | 236.86
285.15 K, x1 = 0.4051 | 236.78
285.15 K, x1 = 0.4986 | 236.52
285.15 K, x1 = 0.5981 | 235.88
285.15 K, x1 = 0.7015 | 234.58
285.15 K, x1 = 0.8023 | 233.57
285.15 K, x1 = 0.9609 | 233.54
285.51 K, x1 = 0.9139 | 233.61
286.16 K, x1 = 0.0061 | 220.9
286.16 K, x1 = 0.0249 | 226.64
286.16 K, x1 = 0.0494 | 230.34
286.16 K, x1 = 0.1 | 233.84
286.16 K, x1 = 0.1547 | 235.78
286.16 K, x1 = 0.1999 | 236.66
286.16 K, x1 = 0.2993 | 237.91
286.16 K, x1 = 0.4051 | 237.9
286.16 K, x1 = 0.4986 | 237.63
286.16 K, x1 = 0.5981 | 237.03
286.16 K, x1 = 0.7015 | 235.81
286.16 K, x1 = 0.8023 | 234.67
286.16 K, x1 = 0.9139 | 234.27
286.16 K, x1 = 0.9609 | 234.56
287.14 K, x1 = 0.0061 | 221.16
287.14 K, x1 = 0.0249 | 226.92
287.14 K, x1 = 0.0494 | 230.72
287.14 K, x1 = 0.1 | 234.39
287.14 K, x1 = 0.1547 | 236.4
287.14 K, x1 = 0.1999 | 237.42
287.14 K, x1 = 0.2993 | 238.78
287.14 K, x1 = 0.4051 | 238.87
287.14 K, x1 = 0.4986 | 238.65
287.14 K, x1 = 0.5981 | 238.11
287.14 K, x1 = 0.7015 | 236.94
287.14 K, x1 = 0.8023 | 235.73
287.14 K, x1 = 0.9139 | 235.37
287.14 K, x1 = 0.9609 | 235.45
288.15 K, x1 = 0.0061 | 221.55
288.15 K, x1 = 0.0249 | 227.34
288.15 K, x1 = 0.0494 | 231.29
288.15 K, x1 = 0.1 | 235.13
288.15 K, x1 = 0.1547 | 237.25
288.15 K, x1 = 0.1999 | 238.28
288.15 K, x1 = 0.2993 | 239.83
288.15 K, x1 = 0.4051 | 240.03
288.15 K, x1 = 0.4986 | 239.84
288.15 K, x1 = 0.5981 | 239.38
288.15 K, x1 = 0.7015 | 238.26
288.15 K, x1 = 0.8023 | 237.01
288.15 K, x1 = 0.9139 | 236.54
288.15 K, x1 = 0.9609 | 236.62
289.14 K, x1 = 0.0061 | 221.82
289.14 K, x1 = 0.0249 | 227.63
289.14 K, x1 = 0.0494 | 231.74
289.14 K, x1 = 0.1 | 235.73
289.14 K, x1 = 0.1547 | 237.99
289.14 K, x1 = 0.1999 | 239.11
289.14 K, x1 = 0.2993 | 240.71
289.14 K, x1 = 0.4051 | 241.03
289.14 K, x1 = 0.4986 | 240.91
289.14 K, x1 = 0.5981 | 240.51
289.14 K, x1 = 0.7015 | 239.53
289.14 K, x1 = 0.8023 | 238.27
289.14 K, x1 = 0.9139 | 237.62
289.14 K, x1 = 0.9609 | 237.61
290.14 K, x1 = 0.0061 | 222.02
290.14 K, x1 = 0.0249 | 227.88
290.14 K, x1 = 0.0494 | 232.1
290.14 K, x1 = 0.1 | 236.25
290.14 K, x1 = 0.1547 | 238.66
290.14 K, x1 = 0.1999 | 239.89
290.14 K, x1 = 0.2993 | 241.62
290.14 K, x1 = 0.4051 | 242.04
290.14 K, x1 = 0.4986 | 241.98
290.14 K, x1 = 0.5981 | 241.64
290.14 K, x1 = 0.7015 | 240.72
290.14 K, x1 = 0.8023 | 239.53
290.14 K, x1 = 0.9139 | 238.75
290.14 K, x1 = 0.9609 | 238.68
291.15 K, x1 = 0.0061 | 222.4
291.15 K, x1 = 0.0249 | 228.24
291.15 K, x1 = 0.0494 | 232.63
291.15 K, x1 = 0.1 | 236.91
291.15 K, x1 = 0.1547 | 239.46
291.15 K, x1 = 0.1999 | 240.73
291.15 K, x1 = 0.2993 | 242.6
291.15 K, x1 = 0.4051 | 243.13
291.15 K, x1 = 0.4986 | 243.16
291.15 K, x1 = 0.5981 | 242.84
291.15 K, x1 = 0.7015 | 241.97
291.15 K, x1 = 0.8023 | 240.74
291.15 K, x1 = 0.9139 | 239.92
291.15 K, x1 = 0.9609 | 239.8
292.14 K, x1 = 0.0061 | 222.7
292.14 K, x1 = 0.0494 | 233.02
292.14 K, x1 = 0.1 | 237.52
292.14 K, x1 = 0.1547 | 240.13
292.14 K, x1 = 0.1999 | 241.49
292.14 K, x1 = 0.2993 | 243.55
292.14 K, x1 = 0.4051 | 244.19
292.14 K, x1 = 0.4986 | 244.28
292.14 K, x1 = 0.5981 | 243.93
292.14 K, x1 = 0.7015 | 243.17
292.14 K, x1 = 0.8023 | 241.93
292.14 K, x1 = 0.9139 | 241.07
